Values quoted from earlier work in US20050158411A1, “Methods and apparatus to prevent, treat, and cure the symptoms of nauea caused by chemotherapy treatments of human cancers” (priority 2000, published 2005).
“Also recorded” adds a separate entry of the source.

What was measured:
[1] = system: fungal infection of the toenails; details: after six months
[2] = system: SARS virus growing in tissue cultures

SMILES | effectiveness for fungal infection of the toenails [1] | effect against the SARS virus [2]
Clc1ccccc1C(c1ccccc1)(c1ccccc1)n1ccnc1 [clotrimazole] | equally effective | –
NC(=O)c1ncn([C@@H]2O[C@H](CO)[C@@H](O)[C@H]2O)n1 [ribavirin] | – | no evidence that the drug has any effect; also recorded: conclusively shown ineffective
